Calls of active or inactive are those of the source.
What was measured:
Conditions in all cases: Parengyodontium album
[1] = target: Proteinase K (Engyodontium album) (UniProt P06873); assay: Inhibition of Engyodontium album proteinase K proteolytic activity in human HeLa cell lysate using beta-actin primer/probes of TaqMan gene expression Cells-to-CT kit at 0.10 mM after 60 mins by qRT-PCR analysis; assay type: cell-free
[2] = target: Proteinase K (Engyodontium album) (UniProt P06873); assay: Inhibition of Engyodontium album proteinase K proteolytic activity assessed as concentration required to obtain cycle threshold 26 using TaqMan gene expression Cells-to-CT kit after 60 mins by qRT-PCR analysis
[3] = target: Proteinase K (Engyodontium album) (UniProt P06873); assay: Ratio of compound to MeO-Suc-AAAPV-CH2Cl for inhibition of Engyodontium album proteinase K proteolytic activity assessed as concentration required to obtain cycle threshold 26 using TaqMan gene expression Cells-to-CT kit after 60 mins by RT-PCR analysis
[4] = target: Proteinase K (Engyodontium album) (UniProt P06873); assay: Inhibition of Engyodontium album proteinase K proteolytic activity assessed as digestion of bovine serum albumin at 0.25 mM after 10 mins using coomassie blue staining by protein gel analysis
[5] = target: Proteinase K (Engyodontium album) (UniProt P06873); assay: Inhibition of Engyodontium album proteinase K proteolytic activity assessed as digestion of bovine serum albumin at 0.75 mM after 10 mins using coomassie blue staining by protein gel analysis
[6] = target: Proteinase K (Engyodontium album) (UniProt P06873); assay: Inhibition of Engyodontium album proteinase K proteolytic activity in human HeLa cell lysate using beta-actin primer/probes of TaqMan gene expression Cells-to-CT kit at 0.5 mM after 60 mins by qRT-PCR analysis; assay type: cell-free

Chain of Proteinase K (Engyodontium album) (P06873 whole entry): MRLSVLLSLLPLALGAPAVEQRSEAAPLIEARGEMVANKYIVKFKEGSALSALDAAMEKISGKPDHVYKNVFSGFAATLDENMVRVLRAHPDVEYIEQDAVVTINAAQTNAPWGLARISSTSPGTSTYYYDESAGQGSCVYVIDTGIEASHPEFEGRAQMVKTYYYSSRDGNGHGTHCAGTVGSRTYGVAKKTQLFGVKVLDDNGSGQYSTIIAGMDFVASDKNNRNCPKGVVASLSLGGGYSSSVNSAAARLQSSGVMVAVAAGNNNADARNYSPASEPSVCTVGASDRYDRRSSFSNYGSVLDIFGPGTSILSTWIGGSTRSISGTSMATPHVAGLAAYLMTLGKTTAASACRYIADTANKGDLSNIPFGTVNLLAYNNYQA

SMILES	inhibition [1]	Activity [2] [mM]	Ratio [3]	inhibition [4]	inhibition [5]	inhibition [6]
COC(=O)CCC(=O)N[C@@H](C)C(=O)N[C@H](C)C(=O)N[C@@H](C)C(=O)N1CCC[C@H]1C(=O)N[C@H](Cc1ccccc1)C(=O)CCl	Active	0.1	7.5	Active	–	–
COC(=O)CCC(=O)N[C@@H](C)C(=O)N[C@H](C)C(=O)N[C@@H](C)C(=O)N1CCC[C@H]1C(=O)N[C@@H](C(=O)CCl)C(C)C	–	–	–	–	inactive	Active

Reference: ChEMBL document CHEMBL1287665, “Design, synthesis and inhibitory effect of pentapeptidyl chloromethyl ketones on proteinase K” (Bioorg Med Chem, 2010)
